Assay results reported in patent US8741951B2, “Non-steroidal compounds for androgen receptor modulation” (CNR—Consiglio Nazionale delle Ricerche, priority 2009, dated 2014).

Tests used:
LNCaP-AR cells = test: SRB in vitro chemosensitivity assay, LNCaP-AR; type: cell-based
Procedure: The cell lines were maintained as a monolayer at 37° C. and subcultured weekly. Culture medium was composed of RPMI 1640 supplemented with 10% fetal calf serum and 1% glutamine (Mascia Brunelli s.p.a., Milan, Italy). Cells were used in the exponential growth phase in all the experiments.
Compounds were dissolved in acetone or DMSO (AITES) ([…]) and stored at −20° C. The cell culture containing acetone at the highest concentration was used as the control.
(§1) Sulforhodamine B (SRB) assay was used according to the method by Skehan et al. (JNCI, 1990). Briefly, cells were collected by trypsinization, counted and plated at a density of 5,000 cells/well in 96-well flat-bottomed microtiter plates (100 μl of cell suspension/well). In the chemosensitivity assay, experiments were run in octuplicate, and each experiment was repeated three times. The optical density (OD) of cells was determined at a wavelength of 490 nm by a colorimetric plate reader.
(§2) If ODtreated is above ODzero, treatment has induced a cytostatic effect, whereas if ODtreated is below ODzero, cell killing has occurred. The ODzero depicts the cell number at the moment of drug addition, the ODcontrol reflects the cell number in untreated wells and the ODtreated reflects the cell number in treated wells on the day of the assay.
FIGS. 2-11 show the cytotoxic activity of the derivative compounds of the invention on the LNCaP and LNCaP-AR cell lines. The authors examined the antitumour activity of the compounds for which the synthesis is described above, in the hormone-sensitive prostate cancer cell line LNCaP and in its derivative cell line LNCaP-AR, expressing high level of AR and with hormone refractory prostate cancer (HRPC) features. The novel compounds were tested at the increasing concentrations of […], 0.2, 2.0, and 20.0 μM. The highest dose used was chosen on the basis of the clinically achievable peak plasma concentration reported in the literature for bicalutamide (Cockshott I D. Clin Pharmacokinet. 2004; 43(13): 855-78). After 144-hr exposure time the cytotoxic effect of the molecules was calculated according to the method of Monks et al. (Monks A, Scudiero D, Skehan P, et al. Feasibility of a high-flux anticancer drug screen using a diverse panel of cultured human tumor cell lines. J Natl Cancer Inst. 1991; 83: 757-66.)

[1] = tested on: human hepatoblastoma cell line HepG2; test: Cytotoxic activity on HepG2 (hepato-toxicity); type: cell-based; conditions: HepG2, up to highest concentration tested
Procedure: as §1, §2
FIG. 27-36 show the cytotoxic activity of the drugs on the human hepatoblastoma cell line HepG2. The authors evaluated in vitro the potential hepato-toxicity of some of the novel compounds on HepG2 cell line, a human hepatoblastoma cell line that retains the specialized function of normal hepatocytes [Knowles B B, Howe C C, Aden D P. Human hepatocellular carcinoma cell lines secretes the major plasma proteins and hepatitis B surface antigen. Science 1980, 209:497-499; Aden D P, Vogel A, Plortkin S, Damjanov I, Knowles B B. Controlled synthesis of HBS Ag in a differentiated human liver carcinoma-derived cell line. Nature, 1979, 282:615-616].

How did the GI50 (LNCaP-AR cells; Homo sapiens, LNCaP/AR, 144 h) turn out when `N#Cc1ccc(NC(=O)[C@](O)(Cc2cccs2)CS(=O)(=O)c2ccc(F)cc2)cc1C(F)(F)F` [(R)-XXIII-6] was run?
Its GI50 is 9.8 µM.

And the LC50 (LNCaP-AR cells; LNCaP-AR cells, 144 h exposure, up to 20 μM)?
Its LC50 is “n.r”.

What about the “cytotoxic effect (cytostatic / cytocidal), in words” value (LNCaP-AR cells; LNCaP-AR, 144 h, up to 20 μM) of the same compound?
Its value is “suppress completely the cell growth”.

What about the “hepato-toxicity, in words” value [1] of the same compound?
The value was “did not display toxicity”.
